This note sets out measurements from ChEMBL document CHEMBL1944514, “Fluorescence detection of single nucleotide polymorphisms using nucleic acid probe containing tricyclic base-linked acyclonucleoside” (Bioorg Med Chem Lett, 2012).

Format in all cases: nucleic-acid assay
The test system of experiment [1] is Nucleic Acid. The experiment in a line: Binding affinity to 3'-r(CUUCCAGUUUCAUAGAGA)-5' RNA assessed as fluorescence quenching by spectrophotometry.
The test system of experiment [2] is Nucleic Acid. As to the kind of experiment: Binding affinity to 3'-r(CUUCCAGUUACAUAGAGA)-5' RNA assessed as fluorescence quenching by spectrophotometry.
For experiment [3], the system named is Nucleic Acid. As to the kind of experiment: Binding affinity to 3'-r(CUUCCAGUUCCAUAGAGA)-5' RNA assessed as fluorescence quenching by spectrophotometry.
The subject of experiment [4] is Nucleic Acid. The experiment in a line: Binding affinity to 3'-r(CUUCCAGUUGCAUAGAGA)-5' RNA assessed as fluorescence quenching by spectrophotometry.

Active and inactive are the calls of the source. The rule behind the calls is not given here.

As to `Cc1cn([C@H]2C[C@H](OP(=O)(O)OC[C@H]3O[C@@H](n4ccc(N)nc4=O)C[C@@H]3OP(=O)(O)OC[C@H]3O[C@@H](n4cnc5c(N)ncnc54)C[C@@H]3OP(=O)(O)OC[C@H]3O[C@@H](n4cnc5c(N)ncnc54)C[C@@H]3OP(=O)(O)OC[C@H](Cn3cnc4cc5c(N)ncnc5nc43)OP(=O)(O)OC[C@H]3O[C@@H](n4cnc5c(=O)[nH]c(N)nc54)C[C@@H]3OP(=O)(O)OC[C@H]3O[C@@H](n4cnc5c(=O)[nH]c(N)nc54)C[C@@H]3OP(=O)(O)CC[C@H]3O[C@@H](n4cc(C)c(=O)[nH]c4=O)C[C@@H]3OP(=O)(O)OC[C@H]3O[C@@H](n4cnc5c(N)ncnc54)C[C@@H]3OP(=O)(O)OC[C@H]3O[C@@H](n4cc(C)c(=O)[nH]c4=O)C[C@@H]3OP(=O)(O)OC[C@H]3O[C@@H](n4ccc(N)nc4=O)C[C@@H]3OP(=O)(O)OC[C@H]3O[C@@H](n4cc(C)c(=O)[nH]c4=O)C[C@@H]3OP(=O)(O)OC[C@H]3O[C@@H](n4ccc(N)nc4=O)C[C@@H]3OP(=O)(O)OC[C@H]3O[C@@H](n4cc(C)c(=O)[nH]c4=O)C[C@@H]3O)[C@@H](COP(=O)(O)O[C@H]3C[C@H](n4cnc5c(=O)[nH]c(N)nc54)O[C@@H]3COP(=O)(O)O[C@H]3C[C@H](n4cnc5c(=O)[nH]c(N)nc54)O[C@@H]3COP(=O)(O)O[C@H]3C[C@H](n4cnc5c(N)ncnc54)O[C@@H]3COP(=O)(O)O[C@H]3C[C@H](n4cnc5c(N)ncnc54)O[C@@H]3COP(=O)(O)O[C@H]3C[C@H](n4cnc5c(=O)[nH]c(N)nc54)O[C@@H]3CO)O2)c(=O)nc1N`, the outcome in the experiment on Nucleic Acid [1], in the experiment on Nucleic Acid [2] and in the experiment with Nucleic Acid [4] was Active. Moreover, in the experiment on Nucleic Acid [3], the result was inactive.

Consider `Cc1cn([C@H]2C[C@H](OP(=O)(O)OC[C@H]3O[C@@H](n4ccc(N)nc4=O)C[C@@H]3OP(=O)(O)OC[C@H]3O[C@@H](n4cnc5c(N)ncnc54)C[C@@H]3OP(=O)(O)OC[C@H]3O[C@@H](n4cnc5c(N)ncnc54)C[C@@H]3OP(=O)(O)OC[C@H]3O[C@@H](n4ccc(N)nc4=O)C[C@@H]3OP(=O)(O)OC[C@H](Cn3cnc4cc5c(N)ncnc5nc43)OP(=O)(O)OC[C@H]3O[C@@H](n4cnc5c(=O)[nH]c(N)nc54)C[C@@H]3OP(=O)(O)CC[C@H]3O[C@@H](n4cc(C)c(=O)[nH]c4=O)C[C@@H]3OP(=O)(O)OC[C@H]3O[C@@H](n4cnc5c(N)ncnc54)C[C@@H]3OP(=O)(O)OC[C@H]3O[C@@H](n4cc(C)c(=O)[nH]c4=O)C[C@@H]3OP(=O)(O)OC[C@H]3O[C@@H](n4ccc(N)nc4=O)C[C@@H]3OP(=O)(O)OC[C@H]3O[C@@H](n4cc(C)c(=O)[nH]c4=O)C[C@@H]3OP(=O)(O)OC[C@H]3O[C@@H](n4ccc(N)nc4=O)C[C@@H]3OP(=O)(O)OC[C@H]3O[C@@H](n4cc(C)c(=O)[nH]c4=O)C[C@@H]3O)[C@@H](COP(=O)(O)O[C@H]3C[C@H](n4cnc5c(=O)[nH]c(N)nc54)O[C@@H]3COP(=O)(O)O[C@H]3C[C@H](n4cnc5c(=O)[nH]c(N)nc54)O[C@@H]3COP(=O)(O)O[C@H]3C[C@H](n4cnc5c(N)ncnc54)O[C@@H]3COP(=O)(O)O[C@H]3C[C@H](n4cnc5c(N)ncnc54)O[C@@H]3COP(=O)(O)O[C@H]3C[C@H](n4cnc5c(=O)[nH]c(N)nc54)O[C@@H]3CO)O2)c(=O)nc1N`, for which the result with Nucleic Acid [1], with Nucleic Acid [2], in the experiment with Nucleic Acid [3] and in the experiment on Nucleic Acid [4] was Active.

In the case of `Cc1cn([C@H]2C[C@H](OP(=O)(O)OC[C@H]3O[C@@H](n4ccc(N)nc4=O)C[C@@H]3OP(=O)(O)OC[C@H]3O[C@@H](n4cnc5c(N)ncnc54)C[C@@H]3OP(=O)(O)OC[C@H]3O[C@@H](n4cnc5c(N)ncnc54)C[C@@H]3OP(=O)(O)OC[C@H]3O[C@@H](n4cnc5c(=O)[nH]c(N)nc54)C[C@@H]3OP(=O)(O)OC[C@H](Cn3cnc4cc5c(N)ncnc5nc43)OP(=O)(O)OC[C@H]3O[C@@H](n4cnc5c(=O)[nH]c(N)nc54)C[C@@H]3OP(=O)(O)CC[C@H]3O[C@@H](n4cc(C)c(=O)[nH]c4=O)C[C@@H]3OP(=O)(O)OC[C@H]3O[C@@H](n4cnc5c(N)ncnc54)C[C@@H]3OP(=O)(O)OC[C@H]3O[C@@H](n4cc(C)c(=O)[nH]c4=O)C[C@@H]3OP(=O)(O)OC[C@H]3O[C@@H](n4ccc(N)nc4=O)C[C@@H]3OP(=O)(O)OC[C@H]3O[C@@H](n4cc(C)c(=O)[nH]c4=O)C[C@@H]3OP(=O)(O)OC[C@H]3O[C@@H](n4ccc(N)nc4=O)C[C@@H]3OP(=O)(O)OC[C@H]3O[C@@H](n4cc(C)c(=O)[nH]c4=O)C[C@@H]3O)[C@@H](COP(=O)(O)O[C@H]3C[C@H](n4cnc5c(=O)[nH]c(N)nc54)O[C@@H]3COP(=O)(O)O[C@H]3C[C@H](n4cnc5c(=O)[nH]c(N)nc54)O[C@@H]3COP(=O)(O)O[C@H]3C[C@H](n4cnc5c(N)ncnc54)O[C@@H]3COP(=O)(O)O[C@H]3C[C@H](n4cnc5c(N)ncnc54)O[C@@H]3COP(=O)(O)O[C@H]3C[C@H](n4cnc5c(=O)[nH]c(N)nc54)O[C@@H]3CO)O2)c(=O)nc1N`, the outcome with Nucleic Acid [1], in the experiment on Nucleic Acid [2] and in the experiment with Nucleic Acid [4] was Active. Further, the outcome with Nucleic Acid [3] was inactive.

For `Cc1cn([C@H]2C[C@H](OP(=O)(O)OC[C@H]3O[C@@H](n4ccc(N)nc4=O)C[C@@H]3OP(=O)(O)OC[C@H]3O[C@@H](n4cnc5c(N)ncnc54)C[C@@H]3OP(=O)(O)OC[C@H]3O[C@@H](n4cnc5c(N)ncnc54)C[C@@H]3OP(=O)(O)OC[C@H]3O[C@@H](n4cnc5c(N)ncnc54)C[C@@H]3OP(=O)(O)OC[C@H](Cn3cnc4cc5c(N)ncnc5nc43)OP(=O)(O)OC[C@H]3O[C@@H](n4cnc5c(=O)[nH]c(N)nc54)C[C@@H]3OP(=O)(O)CC[C@H]3O[C@@H](n4cc(C)c(=O)[nH]c4=O)C[C@@H]3OP(=O)(O)OC[C@H]3O[C@@H](n4cnc5c(N)ncnc54)C[C@@H]3OP(=O)(O)OC[C@H]3O[C@@H](n4cc(C)c(=O)[nH]c4=O)C[C@@H]3OP(=O)(O)OC[C@H]3O[C@@H](n4ccc(N)nc4=O)C[C@@H]3OP(=O)(O)OC[C@H]3O[C@@H](n4cc(C)c(=O)[nH]c4=O)C[C@@H]3OP(=O)(O)OC[C@H]3O[C@@H](n4ccc(N)nc4=O)C[C@@H]3OP(=O)(O)OC[C@H]3O[C@@H](n4cc(C)c(=O)[nH]c4=O)C[C@@H]3O)[C@@H](COP(=O)(O)O[C@H]3C[C@H](n4cnc5c(=O)[nH]c(N)nc54)O[C@@H]3COP(=O)(O)O[C@H]3C[C@H](n4cnc5c(=O)[nH]c(N)nc54)O[C@@H]3COP(=O)(O)O[C@H]3C[C@H](n4cnc5c(N)ncnc54)O[C@@H]3COP(=O)(O)O[C@H]3C[C@H](n4cnc5c(N)ncnc54)O[C@@H]3COP(=O)(O)O[C@H]3C[C@H](n4cnc5c(=O)[nH]c(N)nc54)O[C@@H]3CO)O2)c(=O)nc1N`, the outcome in the experiment on Nucleic Acid [1] was inactive. Besides, the result with Nucleic Acid [2], in the experiment on Nucleic Acid [3] and with Nucleic Acid [4] was Active.

Consider `Cc1cn([C@H]2C[C@H](OP(=O)(O)OC[C@H]3O[C@@H](n4ccc(N)nc4=O)C[C@@H]3OP(=O)(O)OC[C@H]3O[C@@H](n4cnc5c(N)ncnc54)C[C@@H]3OP(=O)(O)OC[C@H]3O[C@@H](n4cnc5c(N)ncnc54)C[C@@H]3OP(=O)(O)OC[C@H]3O[C@@H](n4cc(C)c(=O)[nH]c4=O)C[C@@H]3OP(=O)(O)OC[C@H](Cn3cnc4cc5c(N)ncnc5nc43)OP(=O)(O)OC[C@H]3O[C@@H](n4cnc5c(=O)[nH]c(N)nc54)C[C@@H]3OP(=O)(O)CC[C@H]3O[C@@H](n4cc(C)c(=O)[nH]c4=O)C[C@@H]3OP(=O)(O)OC[C@H]3O[C@@H](n4cnc5c(N)ncnc54)C[C@@H]3OP(=O)(O)OC[C@H]3O[C@@H](n4cc(C)c(=O)[nH]c4=O)C[C@@H]3OP(=O)(O)OC[C@H]3O[C@@H](n4ccc(N)nc4=O)C[C@@H]3OP(=O)(O)OC[C@H]3O[C@@H](n4cc(C)c(=O)[nH]c4=O)C[C@@H]3OP(=O)(O)OC[C@H]3O[C@@H](n4ccc(N)nc4=O)C[C@@H]3OP(=O)(O)OC[C@H]3O[C@@H](n4cc(C)c(=O)[nH]c4=O)C[C@@H]3O)[C@@H](COP(=O)(O)O[C@H]3C[C@H](n4cnc5c(=O)[nH]c(N)nc54)O[C@@H]3COP(=O)(O)O[C@H]3C[C@H](n4cnc5c(=O)[nH]c(N)nc54)O[C@@H]3COP(=O)(O)O[C@H]3C[C@H](n4cnc5c(N)ncnc54)O[C@@H]3COP(=O)(O)O[C@H]3C[C@H](n4cnc5c(N)ncnc54)O[C@@H]3COP(=O)(O)O[C@H]3C[C@H](n4cnc5c(=O)[nH]c(N)nc54)O[C@@H]3CO)O2)c(=O)nc1N`, for which the result in the experiment with Nucleic Acid [1], in the experiment on Nucleic Acid [3] and with Nucleic Acid [4] was Active. Moreover, in the experiment on Nucleic Acid [2], the outcome was inactive.

As for `Cc1cn([C@H]2C[C@H](OP(=O)(O)OC[C@H]3O[C@@H](n4ccc(N)nc4=O)C[C@@H]3OP(=O)(O)OC[C@H]3O[C@@H](n4cnc5c(N)ncnc54)C[C@@H]3OP(=O)(O)OC[C@H]3O[C@@H](n4cnc5c(N)ncnc54)C[C@@H]3OP(=O)(O)OC[C@H](Cn3cnc4cc5c(N)ncnc5nc43)OP(=O)(O)OC[C@H]3O[C@@H](n4cc(C)c(=O)[nH]c4=O)C[C@@H]3OP(=O)(O)OC[C@H]3O[C@@H](n4cnc5c(=O)[nH]c(N)nc54)C[C@@H]3OP(=O)(O)CC[C@H]3O[C@@H](n4cc(C)c(=O)[nH]c4=O)C[C@@H]3OP(=O)(O)OC[C@H]3O[C@@H](n4cnc5c(N)ncnc54)C[C@@H]3OP(=O)(O)OC[C@H]3O[C@@H](n4cc(C)c(=O)[nH]c4=O)C[C@@H]3OP(=O)(O)OC[C@H]3O[C@@H](n4ccc(N)nc4=O)C[C@@H]3OP(=O)(O)OC[C@H]3O[C@@H](n4cc(C)c(=O)[nH]c4=O)C[C@@H]3OP(=O)(O)OC[C@H]3O[C@@H](n4ccc(N)nc4=O)C[C@@H]3OP(=O)(O)OC[C@H]3O[C@@H](n4cc(C)c(=O)[nH]c4=O)C[C@@H]3O)[C@@H](COP(=O)(O)O[C@H]3C[C@H](n4cnc5c(=O)[nH]c(N)nc54)O[C@@H]3COP(=O)(O)O[C@H]3C[C@H](n4cnc5c(=O)[nH]c(N)nc54)O[C@@H]3COP(=O)(O)O[C@H]3C[C@H](n4cnc5c(N)ncnc54)O[C@@H]3COP(=O)(O)O[C@H]3C[C@H](n4cnc5c(N)ncnc54)O[C@@H]3COP(=O)(O)O[C@H]3C[C@H](n4cnc5c(=O)[nH]c(N)nc54)O[C@@H]3CO)O2)c(=O)nc1N`, the result with Nucleic Acid [1] and with Nucleic Acid [3] was Active. For the same compound, the outcome in the experiment with Nucleic Acid [2] and with Nucleic Acid [4] was inactive.
